Data set [1] deals with Tick-borne encephalitis virus. Briefly: microbe, parasite or virus in culture. Type of data set: functional, organism-based. Conditions: PEK.
Data set [2] is described as follows: Cytotoxicity against porcine PEK cells assessed as reduction in cell viability after 24 hrs by microscopic method. The note with it: pig. The data set is classed as cell-based, Sus scrofa.
Data set [3] is described as follows: Cytotoxicity against porcine PEK cells assessed as reduction in cell viability after 7 days by microscopic method. Type of data set: cell-based, Sus scrofa. Conditions: pig.
The nature of data set [4]: Selectivity index, ratio of CC50 for porcine PEK cells assessed as reduction in cell viability after 24 hrs by microscopic method to EC50 for TBEV Absettarov infected in porcine PEK cells assessed as plaque reduction preincubated for 1 hr followed by overlaying with 1.26% methylcellulose and measured after 6 days by gentian violet staining-based assay. Type of data set: toxicity. Conditions: pig, read-out: Ratio CC50/EC50.

The structures appear in SMILES notation. pEC50: −log10 of the molar value. Some results are limits rather than exact numbers.

One may read the pEC50 as −log10 of the EC50, conventionally taken in molar units. Higher therefore signals a low EC50. Usually CC50 stands for the concentration at which the toxic effect on the cells reaches its halfway point. `O=C(NCCCCO)c1ccc(-c2ccc3c4cccc5cccc(c6cccc2c63)c54)s1`: the pEC50 in data set [1] was 8.05. In data set [2], the CC50 at 24 h was above 70 µM. In data set [3], the CC50 at 168 h was above 70 µM.
`OC[C@H]1O[C@@H](n2cnc3c(NCc4c5ccccc5cc5ccccc45)ncnc32)[C@H](O)[C@@H]1O` showed a pEC50 in data set [1] of 4.66. For the same molecule, in data set [2], the CC50 at 24 h was above 50 µM. For the same molecule, in data set [3], the CC50 at 168 h is above 50 µM.
For the molecule `O=C(O)c1ccc2c3cccc4cccc(c5cccc1c52)c43`, the pEC50 in data set [1] was 7.43. Moreover, the CC50 at 24 h in data set [2] is above 50 µM. Also, in data set [3], the CC50 at 168 h came to 37 µM.
The like results for `O=c1[nH]cc(C#Cc2ccc3c4cccc5cccc(c6cccc2c63)c54)c(=O)[nH]1` were, in that order, 8.10, above 100 µM and 37 µM.
The like results for `Cc1cc(O)c2c3c4c(cc(O)c13)C(C)(C)C(=O)c1c(O)cc(O)c(c1-4)C2=O` [HELIOMYCIN] were, in that order, 6.82, 3.7 µM and 3.7 µM.
`CO[C@@H]1[C@H](O)[C@@H](CO)O[C@H]1n1cc(C#Cc2ccc3c4cccc5cccc(c6cccc2c63)c54)c(=O)[nH]c1=O`: in data set [1], the pEC50 was 8.22. For the same molecule, the CC50 at 24 h in data set [2] was above 50 µM. Further, in data set [3], the CC50 at 168 h worked out at 38 µM.
Taken in the same sequence, the figures for `CN(C)c1ccc(C#Cc2ccc3c4cccc5cccc(c6cccc2c63)c54)cc1` were 7.60, above 100 µM and above 100 µM.
In turn, `O=C(O)c1ccc(-c2ccc3c4cccc5cccc(c6cccc2c63)c54)s1` gave a pEC50 in data set [1] of 8.80. Further, the CC50 at 24 h in data set [2] is above 70 µM. In data set [3], the CC50 at 168 h is 26 µM. The selectivity ratio at 24 h in data set [4] is above 30000.
`CCCCNC(=O)c1ccc(-c2ccc3c4cccc5cccc(c6cccc2c63)c54)s1` gave a pEC50 in data set [1] of 8.41. Also, the CC50 at 24 h in data set [2] was above 100 µM. Further, the CC50 at 168 h in data set [3] was above 100 µM.
`O=C(c1ccc(-c2ccc3c4cccc5cccc(c6cccc2c63)c54)s1)N(CCO)CCO`: the pEC50 in data set [1] is 7.82. The CC50 at 24 h in data set [2] was above 70 µM. Besides, the CC50 at 168 h in data set [3] was above 70 µM.
In turn, `O=c1[nH]c(=O)n([C@@H]2O[C@H](CO)[C@@H](O)[C@H]2O)cc1C#Cc1ccc2c3cccc4cccc(c5cccc1c52)c43` showed a pEC50 in data set [1] of 8.11. Also, in data set [2], the CC50 at 24 h is above 100 µM. Moreover, in data set [3], the CC50 at 168 h is above 100 µM.
With `O=c1[nH]c(=O)n([C@@H]2O[C@H](CO)[C@@H](O)[C@@H]2O)cc1C#Cc1ccc2c3cccc4cccc(c5cccc1c52)c43`, in data set [2], the CC50 at 24 h was above 50 µM. Moreover, the CC50 at 168 h in data set [3] is above 50 µM.
As for `CC(=O)Nc1ccc(C#Cc2ccc3c4cccc5cccc(c6cccc2c63)c54)cc1`, in data set [1], the pEC50 was 7.05. The CC50 at 24 h in data set [2] was above 100 µM. For the same molecule, the CC50 at 168 h in data set [3] is above 100 µM.
